Legend:
[1] = target: T1, ΔN-drSLC38A9 (ΔN-SLC38A9) (Danio rerio, UniProt Q08BA4, N227Q/N235Q/N252Q/N263Q); test: proteoliposome radioligand uptake; assay type: biochemical; details: 0.5 μM [3H]L-arginine, labelled compound; NaCl, MES pH 5.0
T1 sequence (Q08BA4 71-549 N227Q/N235Q/N252Q/N263Q): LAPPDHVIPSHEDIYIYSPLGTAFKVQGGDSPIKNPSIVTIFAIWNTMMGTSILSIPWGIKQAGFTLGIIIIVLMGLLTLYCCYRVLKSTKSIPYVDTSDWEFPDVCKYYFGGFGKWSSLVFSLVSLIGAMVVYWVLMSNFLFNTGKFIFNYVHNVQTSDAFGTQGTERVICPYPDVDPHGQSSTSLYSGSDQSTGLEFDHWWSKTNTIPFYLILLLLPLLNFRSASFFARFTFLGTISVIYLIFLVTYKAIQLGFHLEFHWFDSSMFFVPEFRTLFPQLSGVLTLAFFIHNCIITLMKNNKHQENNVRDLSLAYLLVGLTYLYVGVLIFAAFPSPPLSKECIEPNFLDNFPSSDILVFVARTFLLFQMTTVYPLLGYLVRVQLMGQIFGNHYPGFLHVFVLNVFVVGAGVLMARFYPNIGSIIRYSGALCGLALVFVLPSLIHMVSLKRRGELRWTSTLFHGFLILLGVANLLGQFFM

[2] = target: T2, drSLC38A9 (full-length, wild-type) (Danio rerio, UniProt Q08BA4); test: proteoliposome radioligand uptake; assay type: biochemical; details: 0.5 μM [3H]L-arginine, labelled compound; Na+ (not K+ or NMG), pH 5.0
T2 sequence (Q08BA4 1-549): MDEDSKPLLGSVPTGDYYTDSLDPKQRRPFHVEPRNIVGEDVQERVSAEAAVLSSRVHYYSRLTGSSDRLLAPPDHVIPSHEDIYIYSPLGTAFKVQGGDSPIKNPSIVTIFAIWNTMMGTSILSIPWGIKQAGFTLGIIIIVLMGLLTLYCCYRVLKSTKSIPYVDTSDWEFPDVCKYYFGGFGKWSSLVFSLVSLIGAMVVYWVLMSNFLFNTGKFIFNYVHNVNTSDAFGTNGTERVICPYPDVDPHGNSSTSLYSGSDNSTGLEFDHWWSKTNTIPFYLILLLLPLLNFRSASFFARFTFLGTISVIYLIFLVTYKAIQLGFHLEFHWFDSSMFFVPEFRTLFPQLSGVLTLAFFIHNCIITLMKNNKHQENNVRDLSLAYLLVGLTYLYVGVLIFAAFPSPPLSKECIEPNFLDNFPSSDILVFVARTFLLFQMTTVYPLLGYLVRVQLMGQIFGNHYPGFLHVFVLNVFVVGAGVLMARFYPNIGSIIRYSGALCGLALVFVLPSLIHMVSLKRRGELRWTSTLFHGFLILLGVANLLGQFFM

N=C(N)NCCC[C@H](N)C(=O)O [arginine]
proteoliposome radioligand uptake [1]: the truncated drSLC38A9 protein is active and able to bind arginine similarly to the wild-type | proteoliposome radioligand uptake [2]: robust uptake was observed in the presence of sodium
